Test results reported in patent US9617253B2, “Molecules having pesticidal utility, and intermediates, compositions, and processes, related thereto” (Dow AgroSciences LLC, priority 2015, dated 2017).

Legend:
Type in all cases: in vivo
[1] = tested on: Beet Armyworm (Spodoptera exigua, LAPHEG); assay: Bioassay on Beet Armyworm (BAW), 128-well diet tray assay; conditions: 168 h, second instar BAW larvae, 50 μg/cm^2 on artificial diet, 25° C., five to seven days, average of eight wells, read-out: BAW % Control (or Mortality) rating
Procedure: (§1) Certain molecules disclosed in this document were tested against BAW and CL using procedures described in the following examples. In the reporting of the results, the “BAW & CL Rating Table” was used (See Table Section).
Bioassays on BAW were conducted using a 128-well diet tray assay. One to five second instar BAW larvae were placed in each well (3 mL) of the diet tray that had been previously filled with 1 mL of artificial diet to which 50 μg/cm^2 of the test molecule (dissolved in 50 μL of 90:10 acetone-water mixture) had been applied (to each of eight wells) and then allowed to dry. Trays were covered with a clear self-adhesive cover, vented to allow gas exchange, and held at 25° C., 14:10 light-dark for five to seven days. Percent mortality was recorded for the larvae in each well; activity in the eight wells was then averaged. The results are indicated in the table entitled “Table ABC: Biological Results” (See Table Section).

[2] = tested on: Cabbage Looper (Trichoplusia ni, TRIPNI); assay: Bioassay on Cabbage Looper (CL), 128-well diet tray assay; conditions: 168 h, second instar CL larvae, 50 μg/cm^2 on artificial diet, 25° C., five to seven days, average of eight wells, read-out: CL % Control (or Mortality) rating
Procedure: as §1
Bioassays on CL were conducted using a 128-well diet tray assay. One to five second instar CL larvae were placed in each well (3 mL) of the diet tray that had been previously filled with 1 mL of artificial diet to which 50 μg/cm^2 of the test molecule (dissolved in 50 μL of 90:10 acetone-water mixture) had been applied (to each of eight wells) and then allowed to dry. Trays were covered with a clear self-adhesive cover, vented to allow gas exchange, and held at 25° C., 14:10 light-dark for five to seven days. Percent mortality was recorded for the larvae in each well; activity in the eight wells was then averaged. The results are indicated in the table entitled “Table ABC: Biological Results” (See Table Section).

[3] = tested on: Yellow Fever Mosquito (Aedes aegypti, AEDSAE); conditions: about 1 day-old larvae, from 4000 ppm DMSO master plate, room temperature, scored after 3 days
Procedure: Certain molecules disclosed in this document were tested against YFM using procedures described in the following paragraph. In the reporting of the results, the “YFM Rating Table” was used (See Table Section).
Master plates containing 400 μg of a molecule dissolved in 100 μL of dimethyl sulfoxide (DMSO) (equivalent to a 4000 ppm solution) are used. A master plate of assembled molecules contains 15 μL per well. To this plate, 135 μL of a 90:10 water/acetone mixture is added to each well. A robot (Biomek® NXP Laboratory Automation Workstation) is programmed to dispense 15 μL aspirations from the master plate into an empty 96-well shallow plate (“daughter” plate). There are 6 reps (“daughter” plates) created per master. The created “daughter” plates are then immediately infested with YFM larvae.
The day before plates are to be treated, mosquito eggs are placed in Millipore water containing liver powder to begin hatching (4 g into 400 mL). After the “daughter” plates are created using the robot, they are infested with 220 μL of the liver powder/larval mosquito mixture (about 1 day-old larvae). After plates are infested with mosquito larvae, a non-evaporative lid is used to cover the plate to reduce drying. Plates are held at room temperature for 3 days prior to grading. After 3 days, each well is observed and scored based on mortality. The results are indicated in the table entitled “Table ABC: Biological Results” (See Table Section).

Structure (SMILES)	mortality at 50 µg/cm2 [1] [%]	mortality at 50 µg/cm2 [2] [%]	YFM % Control (or Mortality) rating [3]
CCCc1ccc(C)cc1N1C(=O)CS/C1=N\C(=O)Nc1ccc(OCc2ncn(-c3ccc(OC(F)(F)F)cc3)n2)cc1 [F17, (Z)-1-(3-(5-Methyl-2-propylphenyl)-4-oxothiazolidin-2-ylidene)-3-(4-((1-(4-(trifluoromethoxy)phenyl)-1H-1,2,4-triazol-3-yl)methoxy)phenyl)urea]	50 to 100	50 to 100	A (80-100)
CCCc1ccc(C)cc1N1C(=O)CS/C1=N\C(=O)Nc1ccc(COc2ncn(-c3ccc(OC(F)(F)F)cc3)n2)cc1 [F5, (Z)-1-(3-(5-Methyl-2-propylphenyl)-4-oxothiazolidin-2-ylidene)-3-(4-(((1-(4-(trifluoromethoxy)phenyl)-1H-1,2,4-triazol-3-yl)oxy)methyl)phenyl)urea]	50 to 100	50 to 100	A (80-100)
Cc1ccc(C(C)C)c(N2C(=O)CS/C2=N\C(=O)Nc2cc(F)c(OCc3ncn(-c4ccc(OC(F)(F)F)cc4)n3)c(F)c2)c1 [F41, (Z)-1-(3,5-Difluoro-4-((1-(4-(trifluoromethoxy)phenyl)-1H-1,2,4-triazol-3-yl)methoxy)phenyl)-3-(3-(2-isopropyl-5-methylphenyl)-4-oxothiazolidin-2-ylidene)urea]	50 to 100	50 to 100	A (80-100)
COCc1ccc(C)cc1N1C(=O)CS/C1=N\C(=O)Nc1ccc(COc2ncn(-c3ccc(OC(F)(F)F)cc3)n2)c(F)c1 [F9, (Z)-1-(3-Fluoro-4-(((1-(4-(trifluoromethoxy)phenyl)-1H-1,2,4-triazol-3-yl)oxy)methyl)phenyl)-3-(3-(2-(methoxymethyl)-5-methylphenyl)-4-oxothiazolidin-2-ylidene)urea]	50 to 100	50 to 100	A (80-100)
COCc1ccc(C)cc1N1C(=O)CS/C1=N\C(=O)Nc1ccc(COc2ncn(-c3ccc(OC(F)(F)F)cc3)n2)cc1 [F8, (Z)-1-(3-(2-(Methoxymethyl)-5-methylphenyl)-4-oxothiazolidin-2-ylidene)-3-(4-(((1-(4-(trifluoromethoxy)phenyl)-1H-1,2,4-triazol-3-yl)oxy)methyl)phenyl)urea]	50 to 100	50 to 100	A (80-100)
